Reference: paper PMC4552634, “A New Set of Chemical Starting Points with Plasmodium falciparum Transmission-Blocking Potential for Antimalarial Drug Discovery” (PLoS ONE, 2015)
Read-outs that look alike come from different tables or passages of the source.

Columns and labels:
[1] = system: luciferase reaction (BacTiter-Glo); experiment: Interference assay (inhibition of the BacTiter-Glo luciferase reaction); assay type: biochemical; set-up: concentration or dose not given beside the values; settings: ATP interference assay
Method: To discard possible false-positive results, we performed an interference assay in parallel. […] […]. The ATP solution was made by dissolving ATP powder (ATP standard from the ATPlite 1 step assay kit, reference 6016731, Perkin Elmer) in culture medium. The positive control used was the Luciferase Inhibitor I Calbiochem (Merck, 119113) at 100 μM.

HepG2 cells = experiment: Cytotoxicity in HepG2 cells (intracellular ATP, ATPlite, 48 h); assay type: cell-based, human; settings: IC50 HepG2 divided by IC50 P. falciparum gametocytes
[2] = as above; assay type: cell-based, human; settings: human, HepG2 cells
[3] = system: P. falciparum stage V gametocytes; experiment: Gametocytocidal ATP bioluminescence assay (single point 5 μM and 1 μM, dose-response); assay type: cell-based, Plasmodium falciparum; settings: for Ratio IC50 HepG2/IC50 P. falciparum: IC50 HepG2 divided by IC50 P. falciparum gametocytes
Method: Purified stage IV-V gametocytes were obtained as previously described [10]. Single point ATP bioluminescence assay and dose–response of positive hits was determined in accordance with the previously published protocol [10].

[4] = system: P. falciparum asexual stages; settings: TCAMS data, cited from earlier work
[5] = system: P. falciparum stage V gametocytes; experiment: microbe, parasite or virus in culture; set-up: BacTiter-Glo ATP luminescence viability of purified stage V gametocytes in 384-well plates, per cent inhibition versus DMSO; settings: Plasmodium falciparum, 48 h, read-out: % Inhibition
[6] = HepG2, 48 h exposure, intracellular ATP, read-out: IC50 (μM) Cytotoxicity HepG2
[7] = IC50 per ratio column head, unit inferred, read-out: Cytotoxicity in HepG2
[8] = Plasmodium falciparum, P. falciparum gametocytes, average, read-out: IC50 Pf Gametocytes average, IC50 (µM) average
[9] = Plasmodium falciparum, sexual stages (gametocytes), dose-response, read-out: IC50 sexual
[10] = P. falciparum asexual stages, read-out: IC50 (µM) Pf asexual stages
[11] = asexual stages, read-out: IC50 asexual
[12] = sexual stages (gametocytes), dose-response, read-out: IC50 sexual

SMILES: Cc1cc(Nc2ccncc2)n2nc(C)c(-c3ccc(Cl)cc3)c2n1 [TCMDC-124478]
- % Control luminiscence [1]: 100%
- Ratio IC50 HepG2/IC50 P. falciparum (HepG2 cells): >55
- IC50 at 48 h [2, 6]: > 25 µM
- IC50 at 48 h [2, 7]: > 50 µM
- Ratio IC50 HepG2/IC50 P. falciparum [3]: >55
- IC50 [3, 8]: 0.91 µM
- IC50 [3, 9]: 0.913 µM
- IC50 [4, 10]: 0.16 µM
- IC50 [4, 11]: 0.157 µM

SMILES: COc1cc2nc(NCC3CCN(c4nc(N)c5cc(OC)c(OC)cc5n4)CC3)nc(N)c2cc1OC [TCMDC-138723]
- % Control luminiscence [1]: 98%
- Ratio IC50 HepG2/IC50 P. falciparum (HepG2 cells): >18
- IC50 at 48 h [2, 7]: > 25 µM
- Ratio IC50 HepG2/IC50 P. falciparum [3]: >18
- IC50 [3, 8]: 1.42 µM
- IC50 [4, 11]: 0.776 µM

SMILES: COc1cc2nc(N3CCC(CCCC4CCNCC4)CC3)nc(NCc3ccccn3)c2cc1OC [TCMDC-138494]
- % Control luminiscence [1]: 100%
- Ratio IC50 HepG2/IC50 P. falciparum (HepG2 cells): 26
- IC50 at 48 h [2, 7]: 10.6 µM
- Ratio IC50 HepG2/IC50 P. falciparum [3]: 26
- IC50 [3, 8]: 0.4 µM
- IC50 [4, 11]: 0.757 µM

SMILES: COCCCNC(=S)NN=C(C)c1ccccn1 [TCMDC-137907]
- % Control luminiscence [1]: 100%
- Ratio IC50 HepG2/IC50 P. falciparum (HepG2 cells): 106
- IC50 at 48 h [2, 7]: 17 µM
- Ratio IC50 HepG2/IC50 P. falciparum [3]: 106
- IC50 [3, 8]: 0.16 µM
- IC50 [4, 10]: 0.3 µM
- IC50 [4, 11]: 0.296 µM

SMILES: Ic1cc(CNC2CCCCC2)ccc1OCc1cccc(COc2ccc(CNC3CCCCC3)cc2I)c1 [TCMDC-137261]
- % Control luminiscence [1]: 100%
- Ratio IC50 HepG2/IC50 P. falciparum (HepG2 cells): >75
- IC50 at 48 h [2, 7]: > 25 µM
- Ratio IC50 HepG2/IC50 P. falciparum [3]: >75
- IC50 [3, 8]: 0.33 µM
- IC50 [3, 12]: 0.333 µM
- IC50 [4, 11]: 0.829 µM

SMILES: CCc1nn2c(Nc3ccncc3)cc(C)nc2c1-c1ccccc1 [TCMDC-124917]
- % Control luminiscence [1]: 93%
- Ratio IC50 HepG2/IC50 P. falciparum (HepG2 cells): >13
- IC50 at 48 h [2, 7]: > 25 µM
- Ratio IC50 HepG2/IC50 P. falciparum [3]: >13
- IC50 [3, 8]: 1.9 µM
- IC50 [3, 9]: 1.9 µM
- IC50 [4, 10]: 0.2 µM
- IC50 [4, 11]: 0.203 µM

SMILES: Cc1ccc(C)c(CC(=O)N2CCC(n3c(C)nc4ccc(F)cc43)CC2)c1 [TCMDC-124790]
- % Control luminiscence [1]: 100%
- Ratio IC50 HepG2/IC50 P. falciparum (HepG2 cells): >27
- IC50 at 48 h [2, 7]: > 25 µM
- Ratio IC50 HepG2/IC50 P. falciparum [3]: >27
- IC50 [3, 8]: 0.92 µM
- IC50 [3, 9]: 0.923 µM
- IC50 [4, 10]: 0.19 µM
- IC50 [4, 11]: 0.193 µM

SMILES: COc1ccc(CNC2Cc3ccccc3C2)cc1-c1ccc(OC)c(S(=O)(=O)NCCN2CCCC2)c1 [TCMDC-132251]
- % Control luminiscence [1]: 100%
- Ratio IC50 HepG2/IC50 P. falciparum (HepG2 cells): 15
- IC50 at 48 h [2, 7]: 16.6 µM
- Ratio IC50 HepG2/IC50 P. falciparum [3]: 15
- IC50 [3, 8]: 1.14 µM
- IC50 [4, 11]: 0.773 µM

SMILES: O=[N+]([O-])c1ccc(C=NNc2nc(Nc3ccccc3)nc(Nc3ccccc3)n2)o1 [TCMDC-125802]
- % Control luminiscence [1]: 100%
- Ratio IC50 HepG2/IC50 P. falciparum (HepG2 cells): 11
- IC50 at 48 h [2, 7]: 14.8 µM
- Ratio IC50 HepG2/IC50 P. falciparum [3]: 11
- IC50 [3, 8]: 1.31 µM
- IC50 [3, 12]: 1.31 µM
- IC50 [4, 11]: 0.837 µM

SMILES: O=C(c1ccc([N+](=O)[O-])o1)N1CCC(Cc2ccc(C(F)(F)F)cc2)CC1 [TCMDC-124805]
- % Control luminiscence [1]: 100%
- Ratio IC50 HepG2/IC50 P. falciparum (HepG2 cells): 55
- IC50 at 48 h [2, 6]: 14 µM
- IC50 at 48 h [2, 7]: 14.1 µM
- Ratio IC50 HepG2/IC50 P. falciparum [3]: 55
- IC50 [3, 8]: 0.26 µM
- IC50 [3, 9]: 0.257 µM
- IC50 [4, 10]: 0.17 µM
- IC50 [4, 11]: 0.166 µM

SMILES: c1cc(CN2CCC(CCN3CCCCC3)CC2)cc(-c2cccc(-c3nc4ccccc4[nH]3)c2)c1 [TCMDC-133920]
- % Control luminiscence [1]: 100%
- Ratio IC50 HepG2/IC50 P. falciparum (HepG2 cells): 45
- IC50 at 48 h [2, 6]: 13 µM
- IC50 at 48 h [2, 7]: 13.1 µM
- Ratio IC50 HepG2/IC50 P. falciparum [3]: 45
- IC50 [3, 8]: 0.29 µM
- IC50 [3, 9]: 0.293 µM
- IC50 [4, 11]: 0.14 µM

SMILES: Cn1nc(C(F)(F)F)c(-c2ccc(Br)cc2)c1NC(=O)Cc1ccccc1F [TCMDC-123792]
- % Control luminiscence [1]: 100%
- Ratio IC50 HepG2/IC50 P. falciparum (HepG2 cells): >14
- IC50 at 48 h [2, 7]: > 25 µM
- Ratio IC50 HepG2/IC50 P. falciparum [3]: >14
- IC50 [3, 8]: 1.79 µM
- IC50 [3, 9]: 1.79 µM
- IC50 [4, 10]: 0.16 µM
- IC50 [4, 11]: 0.157 µM

SMILES: CCN(CC)CCN(Cc1ccc(-c2ccc(C(F)(F)F)cc2)cc1)C(=O)Cn1cc(Cc2cnn(C)c2)c(=O)nc1/C=C/c1cccc(F)c1F [TCMDC-140964]
- % Control luminiscence [1]: 100%
- Ratio IC50 HepG2/IC50 P. falciparum (HepG2 cells): 83
- IC50 at 48 h [2, 7]: 14.4 µM
- Ratio IC50 HepG2/IC50 P. falciparum [3]: 83
- IC50 [3, 8]: 0.17 µM
- IC50 [3, 12]: 0.173 µM
- IC50 [4, 11]: 0.957 µM

SMILES: O=c1c(Br)ccccc1Br [TCMDC-142246]
- % Control luminiscence [1]: 100%
- Ratio IC50 HepG2/IC50 P. falciparum (HepG2 cells): 61
- IC50 at 48 h [2, 6]: 13 µM
- IC50 at 48 h [2, 7]: 12.6 µM
- inhibition at 5 µM [5]: 103%
- Ratio IC50 HepG2/IC50 P. falciparum [3]: 61
- IC50 [3, 8]: 0.21 µM
- IC50 [3, 9]: 0.207 µM
- IC50 [4, 10]: 0.79 µM
- IC50 [4, 11]: 0.795 µM

SMILES: CCCCCCCN1CC[C@@H](CCCc2ccnc3ccc(OCCCCNC(N)=NO)cc23)[C@@H](CC)C1 [TCMDC-139839]
- % Control luminiscence [1]: 100%
- Ratio IC50 HepG2/IC50 P. falciparum (HepG2 cells): 36
- IC50 at 48 h [2, 7]: 17.2 µM
- Ratio IC50 HepG2/IC50 P. falciparum [3]: 36
- IC50 [3, 8]: 0.47 µM
- IC50 [3, 12]: 0.473 µM
- IC50 [4, 11]: 0.952 µM

SMILES: COc1ccc2nc3cc(Cl)ccc3c(NCCN3CCN(C)CC3)c2c1 [TCMDC-137476]
- % Control luminiscence [1]: 100%
- Ratio IC50 HepG2/IC50 P. falciparum (HepG2 cells): 10
- IC50 at 48 h [2, 6]: 19 µM
- IC50 at 48 h [2, 7]: 19.3 µM
- Ratio IC50 HepG2/IC50 P. falciparum [3]: 10
- IC50 [3, 8]: 1.88 µM
- IC50 [3, 9]: 1.88 µM
- IC50 [4, 10]: 0.12 µM
- IC50 [4, 11]: 0.124 µM

SMILES: Fc1ccc2[nH]c(-c3cccc(-c4ccc(CNCCN5CCNCC5)cc4)c3)nc2c1 [TCMDC-132863]
- % Control luminiscence [1]: 100%
- Ratio IC50 HepG2/IC50 P. falciparum (HepG2 cells): 17
- IC50 at 48 h [2, 6]: 24 µM
- IC50 at 48 h [2, 7]: 24.2 µM
- Ratio IC50 HepG2/IC50 P. falciparum [3]: 17
- IC50 [3, 8]: 1.45 µM
- IC50 [3, 9]: 1.45 µM
- IC50 [4, 10]: 0.9 µM
- IC50 [4, 11]: 0.904 µM

SMILES: COc1ccc(CNCc2ccc(F)cc2)cc1-c1ccc(OC)c(S(=O)(=O)NCCN2CCCC2)c1 [TCMDC-132295]
- % Control luminiscence [1]: 99%
- Ratio IC50 HepG2/IC50 P. falciparum (HepG2 cells): 16
- IC50 at 48 h [2, 7]: 11.4 µM
- Ratio IC50 HepG2/IC50 P. falciparum [3]: 16
- IC50 [3, 8]: 0.72 µM
- IC50 [3, 12]: 0.717 µM
- IC50 [4, 11]: 0.786 µM

SMILES: COc1cc(NC(=O)c2sc(-c3ccc(Cl)cc3)cc2NC(=O)c2cccnc2)ccc1OCCN1CCCC1 [TCMDC-135397]
- % Control luminiscence [1]: 100%
- Ratio IC50 HepG2/IC50 P. falciparum (HepG2 cells): >41
- IC50 at 48 h [2, 7]: > 25 µM
- Ratio IC50 HepG2/IC50 P. falciparum [3]: >41
- IC50 [3, 8]: 0.61 µM
- IC50 [3, 12]: 0.613 µM
- IC50 [4, 11]: 0.38 µM

SMILES: COc1ccc(NC(=O)C2c3ccccc3C(=O)N(CC(C)C)C2c2cccs2)cc1OC (stereo not drawn) [TCMDC-125289]
- % Control luminiscence [1]: 100%
- Ratio IC50 HepG2/IC50 P. falciparum (HepG2 cells): >58
- IC50 at 48 h [2, 7]: > 25 µM
- Ratio IC50 HepG2/IC50 P. falciparum [3]: >58
- IC50 [3, 8]: 0.43 µM
- IC50 [3, 9]: 0.427 µM
- IC50 [4, 10]: 0.2 µM
- IC50 [4, 11]: 0.203 µM

SMILES: CC(C)CNCc1cccc(-c2ccc(CN(CCCN3CCN(C)CC3)C(=O)CCC3CCCC3)cc2)c1 [TCMDC-140558]
- % Control luminiscence [1]: 100%
- Ratio IC50 HepG2/IC50 P. falciparum (HepG2 cells): >36
- IC50 at 48 h [2, 7]: > 25 µM
- Ratio IC50 HepG2/IC50 P. falciparum [3]: >36
- IC50 [3, 8]: 0.7 µM
- IC50 [4, 11]: 0.877 µM
